Literature values as cited in patent US20120028902A1, “PEPTIDE AVAILABILITY” (priority 2008, published 2012).

For `CC[C@H](C)[C@H](N)C(=O)N1CCC[C@H]1C(=O)N1CCC[C@H]1C(=O)O` [IPP, isoleucine-proline-proline], the “Further increase of plasma IPP AUC when consumed with the meal” value (yoghurt drink consumed with breakfast, versus fasted state) is given as 30% and the “Increase of plasma IPP level (area under the concentration vs. time curve) compared to a control drink” value (yoghurt drink drunk in overnight fasted state 30 min prior to breakfast) is given as “more than two-fold”.
